Converted amounts (≈) assume the structure as drawn. Where two headings read alike, the source gives them in different places.
What was measured:
[1] = system: Pseudomonas aeruginosa (NCTC 7244); assay: MIC in HIB medium by turbidity (Referential Example 2, Table 2); type: cell-based; settings: NCTC7244, 18 h, 37° C.
Procedure: The compounds obtained in Synthesis Examples 1 to 4 were tested in the following manner.
A suspension of Pseudomonas aeruginosa (NCTC 7244) cultivated at 37° C. for 18 hours in a heart infusion broth medium (HIB medium) in a final amount of 10^5, 10^6 and 10^7 cells/ml in an HIB medium containing each of the test compounds which was obtained in the same way as in Referential Example 1 except that the maximum concentration of the test compound was 200 μg/ml. The bacterial strain was cultivated at 37° C. for 18 hours, and the turbidity of the culture broth was evaluated with the naked eye. The minimum concentration of the test compound at which no turbidity was noted was defined as MIC.

[2] = Blood level in rats after intramuscular administration (Experimental Example 1, Table 3); type: in vivo; settings: rat, im, 20 mg/kg i.m., serum, read-out: Blood level after administration (average value ± standard deviation); for concentration at 0.25 h: 15 minutes; for concentration at 0.5 h: 30 minutes; for concentration at 1 h: 60 minutes; for concentration at 2 h: 120 minutes
Procedure: The compounds of this invention prepared in Synthesis Examples 1 and 2 were each administered intramuscularly to rats, and the concentrations of the compounds in the blood were determined.
Each of the test compounds was intramuscularly injected into the femoral part of rats in a customary manner in a dose of 20 mg/kg for each rat. The blood was drawn by incising the cervical artery and vein at the end of 15 minutes, 30 minutes, 60 minutes, 120 minutes, and 240 minutes after the injection. The separated sera were used for the measurement of the blood level of the test compounds. The concentrations of the test compounds in the sera were determined by a thin-layer cup method using Micrococcus luteus ATCC 9341 as an assay microorganism.

[3] = system: Pseudomonas aeruginosa (395); assay: MIC, agar plate dilution (Referential Example 1, Table 1); type: cell-based; settings: read-out: Minimum growth inhibitory concentration (MIC)
Procedure: (§1) The antibacterial activities of the cephalosporins of this invention were measured using the sodium salts of the compounds obtained in Synthesis Examples 1 and 2. The procedure and the results are shown in Referential Example 1.
(§2) Carbenicillin sodium salt (CB-PC) and cephazoline sodum salt (CEZ) were used as controls.
(§3) The antibacterial activities of the test compounds against various Gram-positive and Gram-negative bacteria were determined in a customary manner by the minimum growth inhibitory concentration method (MIC method).
(§4) The experimental procedure was as follows:
(§5) A commercially available heart infusion agar medium (to be abbreviated HIA medium) was used as an assay medium, and a commercially available trypto-soy bouillon medium (to be abbreviated TSB) was used as a medium for the growth of test bacterial strains.
(§6) The test compound was diluted with the melted HIA medium to 100 μg/ml as a maximum concentration, and then serially diluted double. The dilutions were poured into sterilized Petri dishes respectively and allowed to cool and solidify to prepare plates containing the test compound.
(§7) The test bacterial strain was cultivated at 37° C. for 18 to 24 hours in the TSB medium. The culture broth was diluted to 50 to 500 times with a freshly prepared TSB culture medium, and one platinum loopful of the dilution was inoculated in each of the plates containing the test compound.

Proteus vulgaris (OX-19) = assay: as above; type: cell-based; settings: 18 h, read-out: Minimum growth inhibitory concentration (MIC)
Procedure: as §1, §2, §3, §4, §5, §6, §7

Shigella flexneri (K-A) = assay: as above; type: cell-based; settings: HIA medium plate, 37° C., 18 hours, read-out: Minimum growth inhibitory concentration (MIC)
Procedure: as §1, §2, §3, §4, §5, §6, §7

Structure (SMILES) | MIC ([1]; 10^5 cells/ml inoculated) [µg/mL] | MIC ([1]; 10^6 cells/ml inoculated) [µg/mL] | MIC ([1]; 10^7 cells/ml inoculated) [µg/mL] | concentration at 0.25 h [2] [ng/mL] | concentration at 0.5 h [2] [ng/mL] | concentration at 1 h [2] [ng/mL] | concentration at 2 h [2] [ng/mL] | MIC ([3]; 18 h) [µg/mL] | MIC (Proteus vulgaris (OX-19)) [µg/mL] | MIC (Shigella flexneri (K-A)) [µg/mL] | MIC ([3]; HIA medium plate, 37° C., 18 hours) [µg/mL]
CC(=O)OCC1=C(C(=O)O)N2C(=O)C(NC(=O)[C@H](NC(=O)c3cnc4c(c3O)C(=O)CCC4)c3ccc(O)cc3)C2SC1 (single isomer, unassigned) [Synthesis Example 1, 7-[D-(-)-α-(4-hydroxy-5-oxo-5,6,7,8-tetrahydroquinoline-3-carboxamide)-α-(4-hydroxyphenyl)acetamido]-3-acetoxymethyl-Δ^3-cephem-4-carboxylic acid] | 12.5 (≈ 20.5 µM) | 12.5 (≈ 20.5 µM) | 25 (≈ 40.9 µM) | 14000 ± 2200 | 9800 ± 3100 | 6800 ± 2200 | 2200 ± 1000 | 1.56 (≈ 2.55 µM) | 1.56 (≈ 2.55 µM) | 0.39 (≈ 0.639 µM) | –
Cc1nnc(SCC2=C(C(=O)O)N3C(=O)C(NC(=O)[C@H](NC(=O)c4cnc5c(c4O)C(=O)CCC5)c4ccc(O)cc4)C3SC2)s1 (single isomer, unassigned) [Synthesis Example 2] | 12.5 (≈ 18.3 µM) | 12.5 (≈ 18.3 µM) | > 200 | 22800 ± 2600 | 16100 ± 3000 | 7600 ± 1800 | 2500 ± 1200 | – | 0.78 (≈ 1.14 µM) | 0.2 (≈ 0.293 µM) | 3.13 (≈ 4.58 µM)

Source: patent US4296112A, “Cephalosporins” (Mitsui Toatsu Chemicals, Inc., priority 1979, dated 1981)
